Patent publication US10093642B2, “Multitarget hedgehog pathway inhibitors and uses thereof” (UNIVERSITA' DEGLI STUDI DI SIENA, priority 2013, dated 2018)

Legend:
Gli1 = molecular target: T1, Gli1 (Homo sapiens, UniProt P08151); experiment: Gli1-mediated transcription luciferase assay in HEK293 cells transiently expressing Gli1; assay type: cell-based; settings: 24 h
T1 construct: expressed in transfected cells; host or cells: HEK293
T1 sequence (P08151 1-1106): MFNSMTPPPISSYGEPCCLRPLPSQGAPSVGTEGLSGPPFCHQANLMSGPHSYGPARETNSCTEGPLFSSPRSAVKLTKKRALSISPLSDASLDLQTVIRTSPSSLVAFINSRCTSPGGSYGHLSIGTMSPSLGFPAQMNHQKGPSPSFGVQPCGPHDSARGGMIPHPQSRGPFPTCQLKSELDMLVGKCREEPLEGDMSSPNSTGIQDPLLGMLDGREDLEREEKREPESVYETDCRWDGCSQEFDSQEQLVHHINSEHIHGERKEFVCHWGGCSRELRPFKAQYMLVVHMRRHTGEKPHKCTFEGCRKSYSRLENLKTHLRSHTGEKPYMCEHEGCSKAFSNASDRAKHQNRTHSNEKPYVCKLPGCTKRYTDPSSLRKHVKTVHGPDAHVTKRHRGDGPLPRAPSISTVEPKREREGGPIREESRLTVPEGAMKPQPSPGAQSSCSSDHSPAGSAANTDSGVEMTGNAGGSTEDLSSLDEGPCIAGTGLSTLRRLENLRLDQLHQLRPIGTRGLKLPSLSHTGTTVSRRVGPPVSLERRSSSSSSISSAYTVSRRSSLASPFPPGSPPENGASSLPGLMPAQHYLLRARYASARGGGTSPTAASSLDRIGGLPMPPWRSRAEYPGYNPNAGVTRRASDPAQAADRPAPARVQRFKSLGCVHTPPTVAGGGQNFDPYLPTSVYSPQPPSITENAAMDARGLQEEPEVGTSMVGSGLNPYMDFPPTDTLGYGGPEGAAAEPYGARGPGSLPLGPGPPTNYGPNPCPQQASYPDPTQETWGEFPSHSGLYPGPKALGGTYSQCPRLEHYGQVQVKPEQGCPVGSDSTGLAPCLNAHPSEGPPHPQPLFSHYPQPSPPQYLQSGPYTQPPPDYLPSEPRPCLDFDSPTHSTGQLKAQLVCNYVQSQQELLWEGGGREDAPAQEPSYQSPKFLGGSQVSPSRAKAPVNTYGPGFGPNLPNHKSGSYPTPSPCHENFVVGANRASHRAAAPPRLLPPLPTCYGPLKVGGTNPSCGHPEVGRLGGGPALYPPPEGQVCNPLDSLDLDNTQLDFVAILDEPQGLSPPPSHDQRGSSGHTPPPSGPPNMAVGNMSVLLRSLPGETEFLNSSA
Method: FIG. 7. Inhibition of Gli1-induced transcription in transfected HEK293 cells. HEK293 cells were transfected with 12×GliBS-Luc and pRL-TK Renilla (normalization control) plus control (empty vector) or Gli1 vector and treated with Glabrescione B or GANT61 (20 μM) or vehicle only (DMSO, dimethyl sulfoxide 0.5%—Gli1 bar in the graph) for 24 h and luciferase activity tested. Shown is the mean of three independent experiments. Error bars indicate SD.
Efficacy of Glabrescione B to directly target Gli1 protein, the final effector of Hh pathway, was also tested. […] GANT61, the only small-molecule described to inhibit Gli1 function (Lauth et al., PNAS 104: 8455-8460), was included as positive control.
To investigate the ability of Glabrescione B to block downstream Hh signaling by targeting Gli1 protein functions, the inventors performed a luciferase assay in HEK293 cells transiently expressing Gli1. The cells were seeded in 24-multiwell plates and the day after transfected with Gli1 expression vector together with the reporter plasmids 12×GliBS-Luc and pRL-TK Renilla reniformis (Kogerman P et al, 1999; Everett L et al, 1999). […] After 24 h of treatment cells were lysed and analyzed by using the Dual Luciferase kit according to manufacturer's instructions (Dual-Luciferase® Reporter assay system; Promega, cat. # E1980). […]

GST = GST (Schistosoma japonicum, UniProt P08515); experiment: NMR relaxation speed of Glabrescione B protons in presence of GST alone; assay type: binding; settings: 0.412 mM
Sequence of GST (P08515 whole entry): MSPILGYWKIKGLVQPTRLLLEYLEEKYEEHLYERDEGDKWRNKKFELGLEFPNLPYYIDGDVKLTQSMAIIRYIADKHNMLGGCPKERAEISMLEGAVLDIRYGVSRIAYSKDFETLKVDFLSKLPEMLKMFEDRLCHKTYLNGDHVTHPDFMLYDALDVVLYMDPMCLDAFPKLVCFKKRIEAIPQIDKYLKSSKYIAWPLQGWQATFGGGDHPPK

[1] = NMR monitoring of direct interaction with Zn2+; assay type: binding
[2] = system: Cancer stem cells (CSCs) isolated from murine Ptch+/− MB; experiment: Neurosphere forming assay (self-renewal of MB CSCs); assay type: cell-based; settings: seven days of treatment; KAAD 1 μM as comparator
Method: FIG. 14. […] After seven days of treatment the number of secondary neurospheres derived from a known number of single cells was counted. The self-renewal CSCs capability is expressed as percentage of neurospheres forming cells.
Hh activity preferentially associates to stemness features. For this reason, the Hh pathway antagonist Glabrescione B has also been investigated for its ability to modulate the behavior of MB cancer stem cells (CSCs).
Another experiment was carried out to determine the ability of Glabrescione B to suppress MB CSCs self-renewal. To this aim neurospheres derived from murine Ptch^+/− MB were treated with Glabrescione B at different concentrations and the percentage of neurospheres-forming cells was measured. For the neurosphere forming assay, cells were plated at clonal density (1-2 cells/mm2) into 96-well plates and cultured in selective medium as described above.
The results shown in FIG. 14 indicate that Glabrescione B has an inhibitory effect on self-renewal of cancer stem cells.

Gli1-GST fusion protein = experiment: NMR relaxation speed of Glabrescione B protons in presence of Gli1-GST; assay type: binding; settings: 0.412 mM
Method: A sample of Glabrescione B 0.412 mM in DMSO-d6 was prepared and added to 20 μL of a solution of Gli1-GST (Glutathione S-transferase) fusion protein at 5 μg/μL, providing a molar ratio of Glabrescione B/Gli1-GST of 150:1. […] In experimental conditions, Glabrescione B protons experiencing the most significant perturbation of the relaxation speed, due to the presence of Gli1-GST, belong to the ring A of the isoflavone nucleus, namely aromatic protons H1, H3 and those belonging to methoxyl groups 2′ and 4′.

IC50 (Gli1; 12×GliBS-Luc reporter): ~15 µM
Normalized relaxation speed ΔR/Rf, GlaB:GST 1:150 (GST; proton 1): 0.024
Normalized relaxation speed ΔR/Rf, GlaB:GST 1:150 (GST; proton 2′): 0.058
Normalized relaxation speed ΔR/Rf, GlaB:GST 1:150 (GST; proton 3): 0.100
Normalized relaxation speed ΔR/Rf, GlaB:GST 1:150 (GST; proton 4′): 0
Normalized relaxation speed ΔR/Rf, GlaB:GST 1:150 (GST; proton 8): 0
Normalized relaxation speed ΔR/Rf, GlaB:GST 1:150 (GST; proton 12): 0.034
Normalized relaxation speed ΔR/Rf, GlaB:GST 1:150 (GST; proton 15): 0.138
Normalized relaxation speed ΔR/Rf, GlaB:GST 1:150 (GST; proton 19): 0
binding to Zn2+ (NMR) [1]: not capable of binding to the metal ions
Compound: COc1cc(OC)c2c(=O)c(-c3ccc(OCC=C(C)C)c(OCC=C(C)C)c3)coc2c1 [Glabrescione B, 3-(3′,4′-bis(3-methylbut-2-enyloxy)phenyl)-5,7-dimethoxy-4H-chromen-4-one]
Gli1-induced transcription (Gli1; GANT61 20 μM as positive control): capable of interfering with Gli1-induced transcription in a dose-dependent manner
MB CSCs self-renewal (percentage of neurospheres-forming cells) [2]: suppressive effect on MB CSCs self-renewal
Normalized relaxation speed ΔR/Rf, GlaB:Gli1-GST 1:150 (Gli1-GST fusion protein; proton 1): 0.341
Normalized relaxation speed ΔR/Rf, GlaB:Gli1-GST 1:150 (Gli1-GST fusion protein; proton 2′): 0.267
Normalized relaxation speed ΔR/Rf, GlaB:Gli1-GST 1:150 (Gli1-GST fusion protein; proton 3): 0.206
Normalized relaxation speed ΔR/Rf, GlaB:Gli1-GST 1:150 (Gli1-GST fusion protein; proton 4′): 0.482
Normalized relaxation speed ΔR/Rf, GlaB:Gli1-GST 1:150 (Gli1-GST fusion protein; proton 8): 0.028
Normalized relaxation speed ΔR/Rf, GlaB:Gli1-GST 1:150 (Gli1-GST fusion protein; proton 11): 0.286
Normalized relaxation speed ΔR/Rf, GlaB:Gli1-GST 1:150 (Gli1-GST fusion protein; proton 12): 0
Normalized relaxation speed ΔR/Rf, GlaB:Gli1-GST 1:150 (Gli1-GST fusion protein; proton 15): 0.329
Normalized relaxation speed ΔR/Rf, GlaB:Gli1-GST 1:150 (Gli1-GST fusion protein; proton 19): 0
